Where “and” joins values, the source holds several entries; their conditions need not be identical. Equal entries are not always repeated.
Test system: 349418-098-R-PDC spheroids, viability, % test/control
Test: Anticancer human tumor 349418-098-R-PDC patient-derived lung adenocarcinoma cell line growth inhibition [IpAb]
Settings: spheroids with HUVEC and MSC; for viability, T/C: stronger effect = lower value
In short: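 Spheroids of 60% malignant cells, 25% HUVEC and 15% MSC were exposed to targeted agents combined with ipatasertib or abemaciclib. Doses started at or near clinical Cmax (10 microM when unknown) and fell in half-log steps.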

[1] = curve of first compound, second compound 0.1 µM
[2] = curve of first compound, second compound 0.316 µM
[3] = curve of first compound, second compound 1 µM
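Further: spheroids exposed to compounds for 7 days.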

CC1(C)CCC(CN2CCN(c3ccc(C(=O)NS(=O)(=O)c4ccc(NCC5CCOCC5)c([N+](=O)[O-])c4)c(Oc4cnc5[nH]ccc5c4)c3)CC2)=C(c2ccc(Cl)cc2)C1
viability, T/C (compound 0.0316 µM): 110% and 115%
viability, T/C (compound 0.1 µM): 109% and 94.8%
viability, T/C (compound 0.316 µM): 107% and 101%
viability, T/C (compound 1 µM): 103% and 106%
viability, T/C (compound 3.16 µM): 82.2% and 92.3%
viability, T/C (compound 10 µM): 6.95% and 3.46%
IC50 (curve of compound): 5170 nM and 5470 nM

CCN1CCN(Cc2ccc(Nc3ncc(F)c(-c4cc(F)c5nc(C)n(C(C)C)c5c4)n3)nc2)CC1
viability, T/C (compound 0.01 µM): 74.5% [middle of 13 runs]
viability, T/C (compound 0.0316 µM): 44.2% [middle of 13 runs]
viability, T/C (compound 0.1 µM): 26.4% [middle of 13 runs]
viability, T/C (compound 0.316 µM): 19.7% [middle of 12 runs]
viability, T/C (compound 1 µM): 15.5% [middle of 13 runs]
IC50 (compound alone, run of 05/18/2021): 28.5 nM [middle of 12 runs]

COc1c(OCCCN2CCOCC2)ccc2c3n(c(=NC(=O)c4cnc(N)nc4)nc12)CCN3
viability, T/C (compound 0.00316 µM): 98.7% and 85.4%
viability, T/C (compound 0.01 µM): 45.2% and 56.9%
viability, T/C (compound 0.0316 µM): 11.5% and 15.2%
viability, T/C (compound 0.1 µM): 7.98% and 6.59%
viability, T/C (compound 0.316 µM): 7.2% and 6.31%
viability, T/C (compound 1 µM): 6.67% and 5.78%
IC50 (curve of compound): 9.02 nM and 12.1 nM

C=CCn1c(=O)c2cnc(Nc3ccc(N4CCN(C)CC4)cc3)nc2n1-c1cccc(C(C)(C)O)n1 + CC(C)NCC(C(=O)N1CCN(c2ncnc3c2C(C)CC3O)CC1)c1ccc(Cl)cc1
IC50 [1]: 154 nM
IC50 [2]: 84.5 nM
IC50 [3]: < 31.6 nM
IC50 (curve of first compound, second compound 3.16 µM): < 31.6 nM
IC50 (curve of first compound, second compound 10 µM): < 31.6 nM
viability, T/C (second compound 0.1 µM, first compound 0.0316 µM): 96.2%
viability, T/C (second compound 0.1 µM, first compound 0.1 µM): 73%
viability, T/C (second compound 0.1 µM, first compound 0.316 µM): 11.5%
viability, T/C (second compound 0.1 µM, first compound 1 µM): 4.54%
viability, T/C (second compound 0.1 µM, first compound 3.16 µM): 4.88%
viability, T/C (second compound 0.1 µM, first compound 10 µM): 5.17%
viability, T/C (second compound 0.316 µM, first compound 0.0316 µM): 82%
viability, T/C (second compound 0.316 µM, first compound 0.1 µM): 44.5%
viability, T/C (second compound 0.316 µM, first compound 0.316 µM): 7.25%
viability, T/C (second compound 0.316 µM, first compound 1 µM): 4.35%
viability, T/C (second compound 0.316 µM, first compound 3.16 µM): 4.32%
viability, T/C (second compound 0.316 µM, first compound 10 µM): 4.08%
viability, T/C (second compound 1 µM, first compound 0.0316 µM): 29.7%
viability, T/C (second compound 1 µM, first compound 0.1 µM): 22.2%
viability, T/C (second compound 1 µM, first compound 0.316 µM): 5.45%
viability, T/C (second compound 1 µM, first compound 1 µM): 3.39%
viability, T/C (second compound 1 µM, first compound 3.16 µM): 3.96%
viability, T/C (second compound 1 µM, first compound 10 µM): 3.54%
viability, T/C (second compound 3.16 µM, first compound 0.0316 µM): 15.3%
viability, T/C (second compound 3.16 µM, first compound 0.1 µM): 12.3%
viability, T/C (second compound 3.16 µM, first compound 0.316 µM): 4.49%
viability, T/C (second compound 3.16 µM, first compound 1 µM): 2.96%
viability, T/C (second compound 3.16 µM, first compound 3.16 µM): 3.95%
viability, T/C (second compound 3.16 µM, first compound 10 µM): 3.35%
viability, T/C (second compound 10 µM, first compound 0.0316 µM): 9.2%
viability, T/C (second compound 10 µM, first compound 0.1 µM): 7.89%
viability, T/C (second compound 10 µM, first compound 0.316 µM): 4.37%
viability, T/C (second compound 10 µM, first compound 1 µM): 2.99%
viability, T/C (second compound 10 µM, first compound 3.16 µM): 3.49%
viability, T/C (second compound 10 µM, first compound 10 µM): 3.4%

CC(C)(C)c1cnc(CSc2cnc(NC(=O)C3CCNCC3)s2)o1 + CCN1CCN(Cc2ccc(Nc3ncc(F)c(-c4cc(F)c5nc(C)n(C(C)C)c5c4)n3)nc2)CC1
IC50 (curve of first compound, second compound 0.01 µM): 24.1 nM
IC50 (curve of first compound, second compound 0.0316 µM): < 9.49 nM
IC50 [1]: < 9.49 nM
IC50 [2]: < 9.49 nM
IC50 [3]: < 9.49 nM
viability, T/C (second compound 0.01 µM, first compound 0.00949 µM): 69.8%
viability, T/C (second compound 0.01 µM, first compound 0.03 µM): 45.4%
viability, T/C (second compound 0.01 µM, first compound 0.0949 µM): 8.31%
viability, T/C (second compound 0.01 µM, first compound 0.3 µM): 2.5%
viability, T/C (second compound 0.01 µM, first compound 0.949 µM): 2.72%
viability, T/C (second compound 0.01 µM, first compound 3 µM): 2.34%
viability, T/C (second compound 0.0316 µM, first compound 0.00949 µM): 47.7%
viability, T/C (second compound 0.0316 µM, first compound 0.03 µM): 36.2%
viability, T/C (second compound 0.0316 µM, first compound 0.0949 µM): 6.02%
viability, T/C (second compound 0.0316 µM, first compound 0.3 µM): 2.71%
viability, T/C (second compound 0.0316 µM, first compound 0.949 µM): 2.93%
viability, T/C (second compound 0.0316 µM, first compound 3 µM): 2.49%
viability, T/C (second compound 0.1 µM, first compound 0.00949 µM): 24.8%
viability, T/C (second compound 0.1 µM, first compound 0.03 µM): 17.7%
viability, T/C (second compound 0.1 µM, first compound 0.0949 µM): 4.01%
viability, T/C (second compound 0.1 µM, first compound 0.3 µM): 2.44%
viability, T/C (second compound 0.1 µM, first compound 0.949 µM): 3%
viability, T/C (second compound 0.1 µM, first compound 3 µM): 2.01%
viability, T/C (second compound 0.316 µM, first compound 0.00949 µM): 14.4%
viability, T/C (second compound 0.316 µM, first compound 0.03 µM): 13.7%
viability, T/C (second compound 0.316 µM, first compound 0.0949 µM): 1.91%
viability, T/C (second compound 0.316 µM, first compound 0.3 µM): 2.83%
viability, T/C (second compound 0.316 µM, first compound 0.949 µM): 3.36%
viability, T/C (second compound 0.316 µM, first compound 3 µM): 2.48%
viability, T/C (second compound 1 µM, first compound 0.00949 µM): 13.9%
viability, T/C (second compound 1 µM, first compound 0.03 µM): 9.5%
viability, T/C (second compound 1 µM, first compound 0.0949 µM): 2.29%
viability, T/C (second compound 1 µM, first compound 0.3 µM): 4.08%
viability, T/C (second compound 1 µM, first compound 0.949 µM): 4.05%
viability, T/C (second compound 1 µM, first compound 3 µM): 3.25%

From PubChem BioAssay AID2060340 (Molecular Pharmacology Branch, DTP, NCI, 2025)
